# Experimental data: paper PMC3350394, “Kinetic analysis and test-retest variability of the radioligand [^11C](R)-PK11195 binding to TSPO in the human brain - a PET study in control subjects” (EJNMMI Research, 2012)
# “And” between values parts separate entries of the source, which are not always exact repeats. Identical values can stand only once.
# Target: TSPO (Homo sapiens, UniProt P30536)
# Assay: PET, kinetic compartment analysis (1TCM, 2TCM) with metabolite-corrected arterial input function
# Conditions: for BPND (k3/k4) Mean: mean of test and retest; for BPND (k3/k4) Retest / BPND (k3/k4) Test / VT (2TCM): mean(SD); for BPND (k3/k4) Retest / BPND (k3/k4) Test: 6 subjects; for ICC: BPND test-retest
# Protocol: Each subject was placed recumbent with the head in the PET system. A head fixation system with an individual plaster helmet was used. A cannula was inserted into the left radial artery and another into the right antecubital vein. A sterile phosphate buffer (pH = 7.4) containing radioligand was injected as a bolus over 2 s into the cubital vein. The cannula was then immediately flushed with a 10-mL saline solution. In each individual, the measurement was repeated after approximately 6 weeks.
# The PET system used was ECAT Exact HR 47 (Siemens/CTI, Knoxville, TN, USA), with an in-plane and an axial resolution of 3.6 and 4.0 mm, respectively, full width at half maximum (FWHM). The radioactivity in the brain was measured continuously for 60 min using a pre-programmed sequence of […] (20 s × 9, 30 s × 6, 180 s × 5, 300 s × 5). […] The images were reconstructed with a Hanning filter (FWHM = 2 mm) in a matrix of 128 × 128 × 47 voxels, yielding a voxel size of 2.03 × 2.03 × 3.125 mm. Attenuation correction was done using transmission scan data obtained for each subject.
# [^11C](R)-PK11195 binding to TSPO was quantified using kinetic compartment analyses with the metabolite-corrected arterial plasma curve as input function. Two compartment models (one- and two-tissue) were used to fit the model to the TACs. The fractional volume of blood present in the tissue volume and bolus time were estimated for each individual, each occasion, by fitting the whole brain TAC with a two-tissue compartment model.
# The one-tissue compartment model (1TCM) describes one compartment which is a composite of free, non-specifically and specifically bound radioligands. The two rate constants, K1 and k2, describe the influx and efflux rates across the blood-brain barrier, respectively.
# The two-tissue compartment model (2TCM) has been described in detail in the literature. The two-tissue compartments are defined as the radioactivity concentration of a nondisplaceable radioligand in the brain (CND) and the radioactivity concentration of a radioligand specifically bound to receptors (CB). In this model, four rate constants (K1, k2, k3 and k4) explain the time curves for radioligand in the brain. In short, the four rate constants were determined by curve fitting with a weighted non-linear least squares fitting technique with constraint-restricting parameters between 0 and 0.9. Each initial value for K1, k2, k3 and k4 was 0.5, 0.1, 0.5 and 0.5, respectively. The local minimum of the sum of the squared residuals was determined by iteration.
# Regional [^11C](R)-PK11195 binding was expressed using the concept of the total distribution volume (VT), which is defined by the following equation, using kinetic constants obtained from 2TCM [16, 20, 21].
# Specific [^11C](R)-PK11195 binding was expressed as binding potential relative to nondisplaceable binding (BPND) as follows:
# The fractional volume of blood present in the tissue volume was determined for each individual, each occasion. It was obtained by fitting whole brain TAC with a 2TCM with six parameters (K1, k2, k3, k4, fractional blood volume (VB) and time shift between plasma input function and PET TAC (tbolus)) and parameters VB and tbolus subsequently applied for each brain region.
# The reproducibility of two successive PET measurements was analysed by means of descriptive statistics (mean, range, SD, coefficient of variance (CV), difference in measurement (error in percent) and intra-class correlation coefficient (ICC)). The ICC was calculated from the between-subject and within-subject variations, using the expression: […]
# [1] = putamen (R), BPND test-retest difference in measurements
# [2] = thalamus (L), BPND test-retest difference in measurements
# [3] = thalamus (R), BPND test-retest difference in measurements
# [4] = thalamus, BPND test-retest difference in measurements
# [5] = thalamus, VT (2TCM) test-retest
# [6] = white matter, 1TCM, retest (2), individual subjects 1-6
# [7] = white matter, 1TCM, retest (2), mean(SD/CV) of 6 subjects
# [8] = white matter, 1TCM, test (1), individual subjects 1-6
# [9] = white matter, 1TCM, test (1), mean(SD/CV) of 6 subjects
# [10] = white matter, 2TCM, retest (2), individual subjects 1-6
# [11] = white matter, 2TCM, retest (2), mean(SD/CV) of 6 subjects
# [12] = white matter, 2TCM, test (1), individual subjects 1-6
# [13] = white matter, 2TCM, test (1), mean(SD/CV) of 6 subjects
# [14] = white matter, BPND test-retest difference in measurements
# [15] = white matter, VT (2TCM) test-retest
# [16] = whole brain, BPND test-retest difference in measurements
# [17] = whole brain, VT (2TCM) test-retest
# TSPO, sequence (P30536 whole entry): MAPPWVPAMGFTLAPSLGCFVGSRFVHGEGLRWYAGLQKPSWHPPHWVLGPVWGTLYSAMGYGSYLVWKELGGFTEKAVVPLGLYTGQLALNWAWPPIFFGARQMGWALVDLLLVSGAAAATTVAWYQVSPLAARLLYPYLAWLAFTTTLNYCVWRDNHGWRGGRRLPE
structure (smiles),measurement,setting,value
CC[C@@H](C)N([11CH3])C(=O)c1cc2ccccc2c(-c2ccccc2Cl)n1 [[^11C](R)-PK11195],BPND (k3/k4) Mean,"putamen (R), 2TCM",1.41
same,BPND (k3/k4) Retest,"putamen (R), 2TCM",1.56(0.73)
same,BPND (k3/k4) Test,"putamen (R), 2TCM",1.27(0.48)
same,ICC,putamen (R),-0.01
same,Error % mean(SD),[1],-32(72) %
same,Error range (%),[1],-145 to 34%
same,BPND (k3/k4) Mean,"putamen, 2TCM",1.38
same,BPND (k3/k4) Retest,"putamen, 2TCM",1.50(0.69)
same,BPND (k3/k4) Test,"putamen, 2TCM",1.20(0.28)
same,ICC,putamen,0.09
same,Error range (%),"putamen, BPND test-retest difference in measurements",-138 to 21%
same,Error % mean(SD),"putamen, VT (2TCM) test-retest",17(38) %
same,Error range (%),"putamen, VT (2TCM) test-retest",-32 to 78%
same,VT (2TCM),"putamen, retest",0.93(0.19)
same,VT (2TCM),"putamen, test",0.83(0.21)
same,BPND (k3/k4) Mean,"thalamus (L), 2TCM",1.26
same,BPND (k3/k4) Retest,"thalamus (L), 2TCM",1.42(0.59)
same,BPND (k3/k4) Test,"thalamus (L), 2TCM",1.11(0.25)
same,ICC,thalamus (L),0.17
same,Error % mean(SD),[2],-32(64) %
same,Error range (%),[2],-136 to 39%
same,BPND (k3/k4) Mean,"thalamus (R), 2TCM",1.60
same,BPND (k3/k4) Retest,"thalamus (R), 2TCM",1.86(0.56)
same,BPND (k3/k4) Test,"thalamus (R), 2TCM",1.34(0.43)
same,ICC,thalamus (R),0.16
same,Error % mean(SD),[3],-46(50) %
same,Error range (%),[3],-136 to 17%
same,BPND (k3/k4) Mean,"thalamus, 2TCM",1.36
same,BPND (k3/k4) Retest,"thalamus, 2TCM",1.53(0.45)
same,BPND (k3/k4) Test,"thalamus, 2TCM",1.19(0.28)
same,ICC,thalamus,0.57
same,Error % mean(SD),[4],-29% and -29(33) %
same,Error range (%),[4],-82 to 9%
same,Error % mean(SD),[5],-6(29) %
same,Error range (%),[5],-47 to 40%
same,VT (2TCM),"thalamus, retest",0.80 (0.23)
same,VT (2TCM),"thalamus, test",0.90(0.27)
same,K1,[6],0.075 mL/cc/min and 0.027 mL/cc/min and 0.032 mL/cc/min and 0.033 mL/cc/min and 0.042 mL/cc/min and 0.046 mL/cc/min
same,k2,[6],0.085 min⁻¹ and 0.066 min⁻¹ and 0.078 min⁻¹ and 0.064 min⁻¹ and 0.071 min⁻¹ and 0.089 min⁻¹
same,K1,[7],0.043(0.017/39) mL/cc/min
same,k2,[7],0.076(0.010/13) min^-1
same,K1,[8],0.049 mL/cc/min and 0.027 mL/cc/min and 0.048 mL/cc/min and 0.030 mL/cc/min and 0.055 mL/cc/min and 0.044 mL/cc/min
same,k2,[8],0.066 min⁻¹ and 0.081 min⁻¹ and 0.072 min⁻¹ and 0.086 min⁻¹ and 0.071 min⁻¹
same,K1,[9],0.042(0.011/26) mL/cc/min
same,k2,[9],0.074(0.008/11) min^-1
same,BPND (k3/k4) Mean,"white matter, 2TCM",1.84
same,BPND (k3/k4) Retest,"white matter, 2TCM",1.78(0.42)
same,BPND (k3/k4) Test,"white matter, 2TCM",1.90(0.42)
same,K1,[10],0.060 mL/cc/min and 0.097 mL/cc/min and 0.035 mL/cc/min and 0.045 mL/cc/min and 0.039 mL/cc/min and 0.051 mL/cc/min
same,k2,[10],0.206 min⁻¹ and 0.209 min⁻¹ and 0.164 min⁻¹ and 0.223 min⁻¹ and 0.126 min⁻¹ and 0.144 min⁻¹
same,k3,[10],0.042 min⁻¹ and 0.061 min⁻¹ and 0.041 min⁻¹ and 0.046 min⁻¹ and 0.028 min⁻¹ and 0.033 min⁻¹
same,k4,[10],0.025 min⁻¹ and 0.045 min⁻¹ and 0.020 min⁻¹ and 0.019 min⁻¹ and 0.018 min⁻¹ and 0.022 min⁻¹
same,K1,[11],0.055(0.023/42) mL/cc/min
same,k2,[11],0.179(0.040/22) min^-1
same,k3,[11],0.042(0.011/26) min^-1
same,k4,[11],0.025(0.010/40) min^-1
same,K1,[12],0.061 mL/cc/min and 0.032 mL/cc/min and 0.035 mL/cc/min and 0.067 mL/cc/min and 0.056 mL/cc/min
same,k2,[12],0.154 min⁻¹ and 0.124 min⁻¹ and 0.184 min⁻¹ and 0.138 min⁻¹ and 0.165 min⁻¹ and 0.176 min⁻¹
same,k3,[12],0.043 min⁻¹ and 0.024 min⁻¹ and 0.034 min⁻¹ and 0.037 min⁻¹
same,k4,[12],0.026 min⁻¹ and 0.019 min⁻¹ and 0.014 min⁻¹ and 0.012 min⁻¹ and 0.030 min⁻¹
same,K1,[13],0.052(0.015/29) mL/cc/min
same,k2,[13],0.157(0.02/13) min^-1
same,k3,[13],0.034(0.009/26) min^-1
same,k4,[13],0.020(0.007/35) min^-1
same,ICC,white matter,0.73
same,Error % mean(SD),[14],-4% and -8% and -8(18) %
same,Error range (%),[14],-25 to 21%
same,Error % mean(SD),[15],-9(25) %
same,Error range (%),[15],-42 to 28%
same,VT (2TCM),"white matter, retest",0.88 (0.19)
same,VT (2TCM),"white matter, test",0.99(0.17)
same,BPND (k3/k4) Mean,"whole brain, 2TCM",1.67
same,BPND (k3/k4) Retest,"whole brain, 2TCM",1.68(0.35)
same,BPND (k3/k4) Test,"whole brain, 2TCM",1.65(0.33)
same,ICC,whole brain,0.57
same,Error % mean(SD),[16],4% and -4(19) %
same,Error range (%),[16],-25 to 22%
same,Error % mean(SD),[17],-7(20) %
same,Error range (%),[17],-38 to 21%
same,VT (2TCM),"whole brain, retest",0.75 (0.16)
same,VT (2TCM),"whole brain, test",0.82(0.18)
